Data published in publication PMC10120551, “Novel Glu-based pyrazolo[3,4-d]pyrimidine analogues: design, synthesis and biological evaluation as DHFR and TS dual inhibitors” (Journal of Enzyme Inhibition and Medicinal Chemistry, 2023).

Key:
SK-MEL-2 = experiment: cells; conditions: Homo sapiens
SW-620 = conditions: SW-620, Colon cancer; five-dose 0.01–100 µM
[1] = tested on: full panel of 59 cancer cells; experiment: NCI one-dose screen (SRB), full panel; type: cell-based, human; conditions: Homo sapiens; mean over full panel of 59 cell lines; 10 µM single dose; read-out: MGI% (mean growth inhibition percentage)
Procedure: The growth percentage (G%) and cell viability of the herein target compounds 6a–l, 7a,b, and 9a–c have been screened towards a full panel of 59 cancer cells at NCI’s Developmental Therapeutics Program (NCI-DTP, MD, USA)[21]. The submitted analogues were initially examined for preliminary in vitro anticancer activity using sulforhodamine B (SRB) assay at 10 µM as a single dose to evaluate cell growth and viability according to the procedure of Drug Evaluation Branch[22]^,[23].
Different types of tumours – colon, NSCLC, leukaemia, CNS, renal, breast, ovarian, melanoma, and prostate cancers – were investigated as a full panel of 59 cell lines, and the attained results are cited in Figures S1–S17 (see Supplementary Material) where the value recorded is the growth relative to that of both the negative control and zero-time number of cells in which both growth inhibition (GI%; 0–100%) and lethality (L%; 0–100%) percentages can be identified. The growth inhibition means percentages (MGI%) for the examined target analogues towards the different treated 59 cancer cells were presented in Figure 2.
The designed analogues were submitted to NCI-Chemotherapeutic Agents Repository (MD, USA) for screening on a panel of 59 cancer cell lines. All compounds were initially examined at 10 µM concentration (Single-Dose Screen), and then the most efficient analogue 6i was screened further at 0.01–100 µM (Five-Dose Screen). The screening procedures were performed according to NCI-Drug Evaluation Branch protocol using SRB protein assay, as described previously[21]^,[66]. The experimental procedures were detailed in the Supporting Information.

RXF 393 = conditions: RXF 393, Renal cancer; five-dose 0.01–100 µM
OVCAR-8 = experiment: cells; conditions: Homo sapiens
HCT-15 [2] = experiment: cells; conditions: Homo sapiens
OVCAR-4 = conditions: OVCAR-4, Ovarian cancer; five-dose 0.01–100 µM
SF-295 [3] = conditions: SF-295, CNS cancer; five-dose 0.01–100 µM
LOX IMVI = conditions: Melanoma, five-dose 0.01–100 µM
OVCAR-5 = conditions: OVCAR-5, Ovarian cancer; five-dose 0.01–100 µM
KM12 = experiment: cells; conditions: Homo sapiens
HCT-15 [4] = conditions: HCT-15, Colon cancer; five-dose 0.01–100 µM
SK-OV-3 = conditions: SK-OV-3, Ovarian cancer; five-dose 0.01–100 µM
K-562 = conditions: K-562, Leukaemia; five-dose 0.01–100 µM
SK-MEL-28 [5] = conditions: SK-MEL-28, Melanoma; five-dose 0.01–100 µM
MOLT-4 = experiment: cells; conditions: Homo sapiens
UACC-257 [6] = experiment: cells; conditions: Homo sapiens
SR = experiment: cells; conditions: Homo sapiens
SF-295 [7] = experiment: cells; conditions: Homo sapiens
NCI-H23 = experiment: cells; conditions: Homo sapiens
HCT-116 = conditions: HCT-116, Colon cancer; five-dose 0.01–100 µM
UACC-257 [8] = conditions: UACC-257, Melanoma; five-dose 0.01–100 µM
MCF7 = experiment: cells; conditions: Homo sapiens
SF-539 [9] = experiment: cells; conditions: Homo sapiens
SK-MEL-28 [10] = experiment: cells; conditions: Homo sapiens
SF-539 [11] = conditions: SF-539, CNS cancer; five-dose 0.01–100 µM
HS 578 T = conditions: Breast cancer, five-dose 0.01–100 µM
U251 = conditions: U251, CNS cancer; five-dose 0.01–100 µM
HCC-2998 = conditions: HCC-2998, Colon cancer; five-dose 0.01–100 µM
PC-3 = experiment: cells; conditions: Homo sapiens
TK-10 = conditions: TK-10, Renal cancer; five-dose 0.01–100 µM

CCOC(=O)CC[C@H](NC(=O)c1ccc(NC(=O)Cn2cnc3c(c(C)nn3-c3ccc(Br)cc3)c2=O)cc1)C(=O)OCC [Compound 6i]
GI50 (SK-MEL-2; SK-MEL-2): 27.6 µM | CC50 (SK-MEL-2; SK-MEL-2, read-out: LC50): > 100 µM | TGI (SW-620): 44.4 µM | inhibition at 10 µM [1]: 62% | TGI (RXF 393): 50.9 µM | GI50 (OVCAR-8; OVCAR-8): 8.17 µM | CC50 (OVCAR-8; OVCAR-8, read-out: LC50): > 100 µM | GI50 (HCT-15 [2]; HCT-15): 26 µM | CC50 (HCT-15 [2]; HCT-15, read-out: LC50): > 100 µM | TGI (OVCAR-4): 32.1 µM | TGI (SF-295 [3]): 31.9 µM | TGI (LOX IMVI): 20.6 µM | TGI (OVCAR-5): 56.3 µM | GI50 (KM12; KM12): 16.1 µM | CC50 (KM12; KM12, read-out: LC50): > 100 µM | TGI (HCT-15 [4]): >100 µM | TGI (SK-OV-3): 67.3 µM | TGI (K-562): >100 µM | TGI (SK-MEL-28 [5]): 22.5 µM | GI50 (MOLT-4; MOLT-4): > 100 µM | CC50 (MOLT-4; MOLT-4, read-out: LC50): > 100 µM | GI50 (UACC-257 [6]; UACC-257): 31.5 µM | CC50 (UACC-257 [6]; UACC-257, read-out: LC50): > 100 µM | GI50 (SR): 71 µM | CC50 (SR; read-out: LC50): > 100 µM | GI50 (SF-295 [7]; SF-295): 14.2 µM | CC50 (SF-295 [7]; SF-295, read-out: LC50): 71.6 µM | GI50 (NCI-H23; NCI-H23): 7.64 µM | CC50 (NCI-H23; NCI-H23, read-out: LC50): 82.1 µM | TGI (HCT-116): >100 µM | TGI (UACC-257 [8]): >100 µM | GI50 (MCF7; MCF7): 3.93 µM | CC50 (MCF7; MCF7, read-out: LC50): 59.4 µM | GI50 (SF-539 [9]; SF-539): 14.8 µM | CC50 (SF-539 [9]; SF-539, read-out: LC50): 73.6 µM | GI50 (SK-MEL-28 [10]; SK-MEL-28): 10.1 µM | CC50 (SK-MEL-28 [10]; SK-MEL-28, read-out: LC50): 50.2 µM | TGI (SF-539 [11]): 33.0 µM | TGI (HS 578 T): 45.7 µM | TGI (U251): >100 µM | TGI (HCC-2998): >100 µM | GI50 (PC-3; PC-3): 5.79 µM | CC50 (PC-3; PC-3, read-out: LC50): 47.7 µM | TGI (TK-10): 86.2 µM
